“And” between values parts separate entries of the source, which are not always exact repeats. Equal entries are not always repeated.
Species: Rattus norvegicus
Assay: DrugMatrix - Regimen: Daily Repeat
Format: toxicity, organism-based, Sprague-Dawley
Set-up: regimen Daily Repeat, gender Male, age 6-8 weeks
Settings: in vivo, sc, route mini-PUMP - SUBCUTANEOUS, vehicle 100 % SALINE; for ABSOLUTE MONOCYTE / ABSOLUTE SEGMENTED NEUTROPHIL / BASOPHIL / EOSINOPHIL / ERYTHROCYTE COUNT / HEMATOCRIT / HEMOGLOBIN / LEUKOCYTE COUNT / MEAN CORPUSCULAR HEMOGLOBIN / MEAN CORPUSCULAR HEMOGLOBIN CONCENTRATION / MEAN CORPUSCULAR VOLUME / MONOCYTE / NEUTROPHIL / NUCLEATED RED BLOOD CELLS / PLATELET COUNT / ABSOLUTE BASOPHIL / ABSOLUTE EOSINOPHIL / ABSOLUTE LYMPHOCYTE: tissue Blood; for ALBUMIN / ALKALINE PHOSPHATASE / ASPARTATE AMINOTRANSFERASE / BLOOD UREA NITROGEN / CARBON DIOXIDE / CHOLESTEROL / CREATINE PHOSPHOKINASE / CREATININE / GLUCOSE / LACTATE DEHYDROGENASE / PHOSPHORUS / POTASSIUM / SODIUM / TOTAL BILIRUBIN / URIC ACID: tissue Plasma
[1] = 0 mg/kg, 72 h, dose level Control, time 3 day
[2] = 0 mg/kg, 120 h, dose level Control, time 5 day
[3] = 0 mg/kg, […], dose level Control, time 14 day
[4] = 0.5 mg/kg, 72 h, dose level High, time 3 day
[5] = 0.5 mg/kg, 120 h, dose level High, time 5 day
[6] = 0.5 mg/kg, […], dose level High, time 14 day

CC[C@H](C)[C@H](NC(=O)[C@H](Cc1ccc(O)cc1)NC(=O)[C@@H](NC(=O)[C@H](CCCNC(=N)N)NC(=O)[C@@H](N)CC(=O)O)C(C)C)C(=O)N[C@@H](Cc1cnc[nH]1)C(=O)N1CCC[C@H]1C(=O)N[C@@H](Cc1ccccc1)C(=O)O [ANGIOTENSIN II]
ABSOLUTE MONOCYTE [1]: 230 cells/µL and 354 CELLS/uL | ABSOLUTE SEGMENTED NEUTROPHIL [1]: 1658.33 CELLS/uL | BASOPHIL [1]: 0.3% and 0% | EOSINOPHIL [1]: 0.43% and 0.5% | ERYTHROCYTE COUNT [1]: 6.91 x10E6/uL and 6.27 x10E6/uL | HEMATOCRIT [1]: 45.43% and 36.95% | HEMOGLOBIN [1]: 14.37 G/DL and 13.4 G/DL | LEUKOCYTE COUNT [1]: 12.09 x10E3/uL and 16.38 x10E3/uL | MEAN CORPUSCULAR HEMOGLOBIN [1]: 20.8 pg and 21.42 pg | MEAN CORPUSCULAR HEMOGLOBIN CONCENTRATION [1]: 31.67 G/DL and 36.27 G/DL | MEAN CORPUSCULAR VOLUME [1]: 65.83 fL and 59.03 fL | MONOCYTE [1]: 1.83% and 2% | NEUTROPHIL [1]: 15.07% and 10.33% | NUCLEATED RED BLOOD CELLS [1]: 0 /100WBC | PLATELET COUNT [1]: 1299.67 x10E3/uL and 904.67 x10E3/uL | ALBUMIN [1]: 3.83 G/DL and 3.82 G/DL | ALKALINE PHOSPHATASE [1]: 333.67 u/L and 282.33 u/L | ASPARTATE AMINOTRANSFERASE [1]: 68 u/L and 86.83 u/L | BLOOD UREA NITROGEN [1]: 19.33 mg/dL and 20.17 mg/dL | CARBON DIOXIDE [1]: 43 mmol/L and 34.67 mmol/L | CHOLESTEROL [1]: 84.33 mg/dL and 71.5 mg/dL | CREATINE PHOSPHOKINASE [1]: 334.33 u/L | CREATININE [1]: 0.53 mg/dL and 0.2 mg/dL | GLUCOSE [1]: 156.67 mg/dL and 136.83 mg/dL | LACTATE DEHYDROGENASE [1]: 159 u/L | PHOSPHORUS [1]: 9.8 mg/dL and 10.12 mg/dL | POTASSIUM [1]: 5.93 MEQ/L and 5.92 MEQ/L | SODIUM [1]: 146.33 MEQ/L and 147.8 MEQ/L | TOTAL BILIRUBIN [1]: 0.37 mg/dL and 0.2 mg/dL | URIC ACID [1]: 0.73 mg/dL and 1.4 mg/dL | ABSOLUTE SEGMENTED NEUTROPHIL [2]: 3216.67 CELLS/uL | BASOPHIL [2]: 0.2% and 0% | EOSINOPHIL [2]: 0.33% and 0% | ERYTHROCYTE COUNT [2]: 6.81 x10E6/uL and 6.11 x10E6/uL | HEMATOCRIT [2]: 44.33% and 36.22% | HEMOGLOBIN [2]: 13.77 G/DL and 13.18 G/DL | LEUKOCYTE COUNT [2]: 11.2 x10E3/uL and 17.8 x10E3/uL | MEAN CORPUSCULAR HEMOGLOBIN [2]: 20.23 pg and 21.62 pg | MEAN CORPUSCULAR HEMOGLOBIN CONCENTRATION [2]: 31.03 G/DL and 36.42 G/DL | MEAN CORPUSCULAR VOLUME [2]: 65.1 fL and 59.37 fL | MONOCYTE [2]: 2.1% and 1.83% | NEUTROPHIL [2]: 16.43% and 17.67% | NUCLEATED RED BLOOD CELLS [2]: 0 /100WBC | PLATELET COUNT [2]: 1573.33 x10E3/uL and 1311 x10E3/uL | ALBUMIN [2]: 3.87 G/DL and 3.83 G/DL | ALKALINE PHOSPHATASE [2]: 303.67 u/L and 260.33 u/L | ASPARTATE AMINOTRANSFERASE [2]: 72.67 u/L and 76.17 u/L | BLOOD UREA NITROGEN [2]: 17.33 mg/dL and 14.67 mg/dL | CARBON DIOXIDE [2]: 41.33 mmol/L and 31.33 mmol/L | CHOLESTEROL [2]: 74.33 mg/dL and 75 mg/dL | CREATINE PHOSPHOKINASE [2]: 286.67 u/L | CREATININE [2]: 0.47 mg/dL and 0.16 mg/dL | GLUCOSE [2]: 152.33 mg/dL and 152.67 mg/dL | LACTATE DEHYDROGENASE [2]: 147.33 u/L | PHOSPHORUS [2]: 10 mg/dL and 10.97 mg/dL | POTASSIUM [2]: 6.4 MEQ/L and 6 MEQ/L | SODIUM [2]: 146 MEQ/L and 145.52 MEQ/L | TOTAL BILIRUBIN [2]: 0.43 mg/dL and 0.17 mg/dL | URIC ACID [2]: 0.83 mg/dL and 1.27 mg/dL | ABSOLUTE SEGMENTED NEUTROPHIL [3]: 2414 CELLS/uL | NUCLEATED RED BLOOD CELLS [3]: 0.17 /100WBC | CREATINE PHOSPHOKINASE [3]: 262 u/L | ABSOLUTE BASOPHIL [4]: 56.7 cells/µL | ABSOLUTE EOSINOPHIL [4]: 70 cells/µL | ABSOLUTE LYMPHOCYTE [4]: 10900 cells/µL | ABSOLUTE MONOCYTE [4]: 510 cells/µL | BASOPHIL [4]: 0.4% | EOSINOPHIL [4]: 0.5% | ERYTHROCYTE COUNT [4]: 6.47 x10E6/uL | HEMATOCRIT [4]: 44.43% | HEMOGLOBIN [4]: 13.53 G/DL | LEUKOCYTE COUNT [4]: 14.39 x10E3/uL | MEAN CORPUSCULAR HEMOGLOBIN [4]: 20.97 pg | MEAN CORPUSCULAR HEMOGLOBIN CONCENTRATION [4]: 30.53 G/DL | MEAN CORPUSCULAR VOLUME [4]: 68.7 fL | MONOCYTE [4]: 3.57% | NEUTROPHIL [4]: 18.63% | PLATELET COUNT [4]: 1360 x10E3/uL | ALBUMIN [4]: 3.77 G/DL | ALKALINE PHOSPHATASE [4]: 339 u/L | ASPARTATE AMINOTRANSFERASE [4]: 71.67 u/L | BLOOD UREA NITROGEN [4]: 19 mg/dL | CARBON DIOXIDE [4]: 41.33 mmol/L | CHOLESTEROL [4]: 91.67 mg/dL | CREATINE PHOSPHOKINASE [4]: 392.67 u/L | CREATININE [4]: 0.5 mg/dL | GLUCOSE [4]: 169.67 mg/dL | PHOSPHORUS [4]: 10.23 mg/dL | POTASSIUM [4]: 6.3 MEQ/L | SODIUM [4]: 150.67 MEQ/L | TOTAL BILIRUBIN [4]: 0.27 mg/dL | URIC ACID [4]: 0.93 mg/dL | ABSOLUTE BASOPHIL [5]: 43.3 cells/µL | ABSOLUTE EOSINOPHIL [5]: 36.7 cells/µL | ABSOLUTE LYMPHOCYTE [5]: 9260 cells/µL | ABSOLUTE MONOCYTE [5]: 340 cells/µL | BASOPHIL [5]: 0.33% | EOSINOPHIL [5]: 0.3% | ERYTHROCYTE COUNT [5]: 6.6 x10E6/uL | HEMATOCRIT [5]: 45.03% | HEMOGLOBIN [5]: 13.57 G/DL | LEUKOCYTE COUNT [5]: 12.59 x10E3/uL | MEAN CORPUSCULAR HEMOGLOBIN [5]: 20.53 pg | MEAN CORPUSCULAR HEMOGLOBIN CONCENTRATION [5]: 30.1 G/DL | MEAN CORPUSCULAR VOLUME [5]: 68.23 fL | MONOCYTE [5]: 2.7% | NEUTROPHIL [5]: 22.57% | PLATELET COUNT [5]: 1662.33 x10E3/uL | ALBUMIN [5]: 3.8 G/DL | ALKALINE PHOSPHATASE [5]: 329 u/L | ASPARTATE AMINOTRANSFERASE [5]: 76.33 u/L | BLOOD UREA NITROGEN [5]: 17.67 mg/dL | CARBON DIOXIDE [5]: 41 mmol/L | CHOLESTEROL [5]: 86.33 mg/dL | CREATINE PHOSPHOKINASE [5]: 239.67 u/L | CREATININE [5]: 0.5 mg/dL | GLUCOSE [5]: 171.33 mg/dL | PHOSPHORUS [5]: 9.77 mg/dL | POTASSIUM [5]: 5.87 MEQ/L | SODIUM [5]: 152 MEQ/L | TOTAL BILIRUBIN [5]: 0.3 mg/dL | URIC ACID [5]: 1.33 mg/dL | ABSOLUTE BASOPHIL [6]: 40 cells/µL | ABSOLUTE EOSINOPHIL [6]: 62 cells/µL

Source: ChEMBL document CHEMBL3885881, “DrugMatrix”
